Experimental findings from US11793824B2, “Administration of nicotinamide mononucleotide in the treatment of disease” (Washington University, priority 2013, dated 2023) are described below.

One series deals with neurospheres (NSPCs). Put plainly: Neurosphere proliferation, marker proteins and cell cycle under FK866. The class given is cell-based, mouse. As for the experimental part: Protein extracts (15-50 μg) from mouse hippocampi or neurospheres were prepared as previously described (Yoshino et al, 2011).
Total RNA was extracted from the hippocampus using an RNeasy kit (Qiagen) and reverse-transcribed into cDNA with a High Capacity cDNA Reverse Transcription kit (Applied Biosystems). Quantitative real-time RT-PCR was conducted with the TaqMan Fast Universal PCR Master mix and appropriate TaqMan primers for each gene with the GeneAmp 7500 fast sequence detection system (Applied Biosystems). Relative expression levels were calculated for each gene by normalizing to Gapdh levels and then to a control.
FK866 (Hasmann & Schemainda, 2003) (Sigma F8557), EX527 (Peck et al, 2010) (Cayman Chemical 10009798), and AGK2 (Outeiro et al, 2007) (Sigma A8231) were dissolved in DMSO and used to inhibit Nampt, Sirt1, and Sirt2 respectively.
Neurosphere cultures and culture media were prepared as described by Dasgupta & Gutmann, 2005 and Lu & Ramanan, 2012 with the following minor modifications. Briefly, postnatal hippocampi were dissected in HibernateA (Invitrogen, A12475-01) and trypsinized at 37° C. for 7 m. Cells were mechanically dissociated by pipetting and pelleted by centrifugation (1700 rpm, 7 min). Dissociation medium (0.1% sodium bicarbonate, 15 mM HEPES, 0.5% glucose in HBSS) was used to wash the cells before they were resuspended in growth medium. Growth medium consisted of DMEM:F12 (1:1, Invitrogen 11966-025 and 21700-075, respectively), B27 (Invitrogen, 17504-044), N2 (Invitrogen, 17502-048), Pen/Strep (Invitrogen), epidermal growth factor (EGF, 20 ng/ml, Sigma, E4127), fibroblast growth factor (FGF, 10 ng/mL, R&D Systems, 233-fb), and heparin (Sigma). Cultures were maintained at 37° C. with 5% CO2, and passaged twice before use in experiments. Three to nine independent samples, each in 1 to 3 replicates, from at least two different litters, were used in all experiments. Neurospheres were cultured in the physiological glucose level of 5 mM (Dienel & Cruz, 2006), which has been previously shown to have no negative consequences on NSPC proliferation, differentiation, or death (Fu et al, 2006; Gao & Gao, 2007).
Neurospheres derived from Nampt^flox/flox mice were dissociated by trypsin digestion and seeded at similar cell densities in 24-well plates with fresh growth medium. Every 24 hours, neurospheres from triplicate wells were collected, dissociated, and counted on a hemocytometer using 0.2% trypan blue exclusion to distinguish viable cells. For analysis of neurosphere diameter, the largest neurosphere in each well was imaged (20× objective) and the diameter was calculated using ImageJ. For secondary neurosphere analysis, the total number of neurospheres in each well was counted at 7 days post-plating.
The inventors investigated how inhibition of Nampt affects neurosphere proliferation. […] To distinguish whether this decrease in cell number was due to an inhibition of proliferation or enhancement of death, the inventors analyzed the protein levels of markers of proliferation, apoptosis, and autophagy. […] Parametric analysis of gene enrichment (PAGE) was conducted based on microarray analyses. See the Methods section. […] Data are presented as mean±s.e.m. *P<0.05. **P<0.01. ***P<0.001.

Series [1] is described as follows: Stability of NMN in drinking water. The class given is physicochemical.
Series [2] in a line: Bone mineral density by dual-energy X-ray absorptiometry (DXA). The class given is in vivo, mouse. Conditions: 12-month time point, 17-18 month old mice. As for the experimental part:
(§1) A 12 month-long NMN administration study using wild-type mice under a regular chow-fed condition was conducted. NMN was administered through drinking water, and two doses of NMN, 100 and 300 mg/kg body weight/day, were tested. […] To assess beneficial and possible adverse effects of NMN, a variety of physiological parameters were periodically monitored, including body weight, body temperature, food and water intake, fed and fasted blood glucose levels, fed and fasted plasma lipid panels, and glucose and insulin tolerance, in NMN-administered and control mice. Blood chemistry, blood cell counts, urine strip test, and other physiological tests including physical activity test were also checked.
The inventors measured the bone mineral density (BMD) of control and NMN-treated mice at the 12-month time point of a 12 month long NMN administration experiment by dual-energy X-ray absorptiometry (DXA). At this time point, mice were 17-18 month old.

Series [3] can be described thus: Electroretinography (ERG) of aged mice. The class given is in vivo, mouse. The method, then: as §1
In the long-term NMN administration study (See Methods; Administration of NMN through Drinking Water and Determination of NMN Stability and Toxicity), retinal function was evaluated by fundus biomicroscopy and electroretinography (ERG). FIG. 11 illustrates fundus biomicroscopy images from control and NMN-administered mice. For each group, five mice were examined, and two representative images are shown.
FIG. 12A-C illustrates electroretinograms from control and NMN-administered mice. Amplitudes of scotopic a and b (FIG. 12A, FIG. 12B) and photopic b (FIG. 12C) waves over each stimulus range are shown. […] The data were analyzed with the two-way repeated ANOVA. […]

Setting [4] is: FK866 10 nM, 48 hours, immunoblot.

The structures appear in SMILES notation.

Take `O=C(/C=C/c1cccnc1)NCCCCC1CCN(C(=O)c2ccccc2)CC1` [FK866]: in the series on neurospheres (NSPCs) (FK866 10 nM, 48 hours), the “cyclins E and A and E2F1 mRNA (qRT-PCR)” value was “the primary cell cycle factors affected”; the “levels of activated caspase 3” value is given as “only slightly increased”; the “levels of autophagy marker glycosylated LC3B” value is “unchanged”; the “reduction of NSPC number” value came out at 61%. In the series with neurospheres (NSPCs) (setting [4]), the “decrease of Ki67 protein expression” value came to 87% and the “decrease of PCNA protein expression” value is 43%. For the same molecule, in the series with neurospheres (NSPCs) (FK866 treatment), the “proportion of NSPCs in G0/G1 (FACS)” value was “increased the proportion of NSPCs in G0/G1” and the “proportion of NSPCs in S phase (FACS)” value is reported as “decreased the proportion in S phase”.

Consider `NC(=O)c1ccc[n+]([C@@H]2O[C@H](COP(=O)([O-])O)[C@@H](O)[C@H]2O)c1` [NMN, nicotinamide mononucleotide], for which the “stability of NMN in drinking water” value in series [1] (in solution) was “stable in solution”. Also, in series [1] (room temperature), the “degradation of NMN in drinking water” value is on record as “No significant degradation”. Moreover, the “increase in the BMD” value in series [2] (100 mg/kg group) is listed as 2.8%; in series [2] (300 mg/kg group), 5.9%. For the same molecule, the “scotopic a wave amplitudes” value in series [3] (at 0 and 5 db (300 mg/kg), 5 db (100 mg/kg), aged mice) is listed as “significantly higher amplitudes”. Also, the photopic b wave entry in series [3] (entire range of stimulus, 100 and 300 mg/kg groups) is listed as “trend of improvement”.
